Measured values reported in the Deep4Chem optical property database.
One block for each compound: values may come before it.

Test: photoluminescence quantum yield (fraction); solvent given as SMILES

Compound: CC[C@H](C)COc1ccc(C2=C3C(C)=C(c4ccc5ccc6cccc7ccc4c5c67)C(C)=[N+]3[B-](F)(F)n3c(C)c(-c4ccc5ccc6cccc7ccc4c5c67)c(C)c32)cc1
photoluminescence quantum yield (in ClCCl): 0.5

Compound: CC(C)(C)c1ccc(-c2c(-c3cccc(-n4c5ccccc5c5ccccc54)c3)c(C#N)c(-c3cccc(-n4c5ccccc5c5ccccc54)c3)c(-c3ccc(C(C)(C)C)cc3)c2-c2ccc(C(C)(C)C)cc2)cc1
photoluminescence quantum yield (in C1CCOC1): 0.064

Compound: CCN1C(=O)C(C2C(=O)c3c4ccccc4cc4cc5ccccc5c2c34)SC1=S (configuration not stated)
photoluminescence quantum yield (in C1CCOC1): 0.258
photoluminescence quantum yield (in CC#N): 0.135
photoluminescence quantum yield (in CCCCCC): 0.33
photoluminescence quantum yield (in Cc1ccccc1): 0.339
photoluminescence quantum yield (in ClCCl): 0.229

Compound: CCCCC1C(=O)c2cc(Oc3ccc(C(C)(C)C)cc3)c3c4c(Oc5ccc(C(C)(C)C)cc5)cc5c6c(cc(Oc7ccc(C(C)(C)C)cc7)c(c7c(Oc8ccc(C(C)(C)C)cc8)cc(c2c37)C1=O)c64)C1=C(C5=O)c2ccc3ccccc3[n+]2[B-](F)(F)O1 (configuration not stated)
photoluminescence quantum yield (in ClCCl): 0.5

Compound: CCc1c(C)[nH]c(C2=[N+]3C(=C(C)c4c(C)c(CC)c(C)n4[B-]3(F)F)c3ccccc32)c1C
photoluminescence quantum yield (in C1CCOC1): 0.27
photoluminescence quantum yield (in CC#N): 0.21
photoluminescence quantum yield (in CCCCCC): 0.93
photoluminescence quantum yield (in CO): 0.21
photoluminescence quantum yield (in Cc1ccccc1): 0.71
photoluminescence quantum yield (in ClCCl): 0.72

Compound: CC(C)[Si](C#Cc1ccc(C#C[Si](C(C)C)(C(C)C)C(C)C)c2nc3c(nc12)C1c2ccccc2C3c2ccccc21)(C(C)C)C(C)C
photoluminescence quantum yield (in CCCCCC): 0.1

Compound: F[B-]1(F)OC(c2ccc(Br)cc2)=Cc2c3ccccc3cc[n+]21
photoluminescence quantum yield (in ClC(Cl)Cl): 0.049

Compound: CCCCCCCCn1c(=O)c2cc3c(C#Cc4ccc(N(c5ccccc5)c5ccccc5)cc4)c4cc5c(=O)n(CCCCCCCC)c(=O)c5cc4c(C#Cc4ccc(N(c5ccccc5)c5ccccc5)cc4)c3cc2c1=O
photoluminescence quantum yield (in ClC(Cl)Cl): 0.53

Compound: O=[N+]([O-])c1ccc(NCCNCc2c3ccccc3cc3ccccc23)c([N+](=O)[O-])c1
photoluminescence quantum yield (in C1CCCCC1): 0.0003
photoluminescence quantum yield (in C1CCOC1): 0.00044
photoluminescence quantum yield (in CC#N): 0.00168
photoluminescence quantum yield (in CC(C)=O): 0.0024
photoluminescence quantum yield (in CCO): 0.0363
photoluminescence quantum yield (in CN(C)C=O): 0.00369
photoluminescence quantum yield (in CO): 0.0334
photoluminescence quantum yield (in ClC(Cl)Cl): 0.0061

Compound: O=C(/C=C(\O)c1ccc(N2c3ccccc3Oc3ccccc32)cc1)c1ccc(N2c3ccccc3Oc3ccccc32)cc1
photoluminescence quantum yield (in c1ccc2c(c1)c1ccccc1n2-c1ccc(-c2ccc(-n3c4ccccc4c4ccccc43)cc2)cc1): 0.68

Compound: CCCCOc1ccc(/C=C/C=C/C=C/c2ccc([N+](=O)[O-])cc2)cc1
photoluminescence quantum yield (in CC1CCCCC1): 0.25
photoluminescence quantum yield (in CC#N): 0.014
photoluminescence quantum yield (in Cc1ccccc1): 0.53
photoluminescence quantum yield (in ClCCl): 0.06

Compound: CCCCCCC(CCCCCC)N1C(=O)c2cccc3c(-c4ccc(N(C)C)cc4)ccc(c23)C1=O
photoluminescence quantum yield (in CCCCCC): 0.7
photoluminescence quantum yield (in CCCCCCCCCCCCCC): 0.73
photoluminescence quantum yield (in CCCCCCCCCCCO): 0.14
photoluminescence quantum yield (in CCCCO): 0.013
photoluminescence quantum yield (in CN(C)C=O): 0.0037
photoluminescence quantum yield (in Cc1ccccc1): 0.65
photoluminescence quantum yield (in ClC(Cl)Cl): 0.64

Compound: CSc1sc(C(N)=O)c2nnn(C)c(=O)c12
photoluminescence quantum yield (in C1CCOC1): 0.5
photoluminescence quantum yield (in CC#N): 0.38
photoluminescence quantum yield (in CCO): 0.22
photoluminescence quantum yield (in CN(C)C=O): 0.27
photoluminescence quantum yield (in CO): 0.16
photoluminescence quantum yield (in CS(C)=O): 0.1

Other lines, results leading:

photoluminescence quantum yield (in CC#N): 0.06
photoluminescence quantum yield (in CCO): 0.05
photoluminescence quantum yield (in ClCCl): 0.4
photoluminescence quantum yield (in O): 0.009
Compound: C=CCNc1ccc2c(ccc3oc4cc(=[N+](C)C)ccc-4nc32)c1

photoluminescence quantum yield (in C1CCCCC1): 0.41
Compound: Cc1ccc(C)c(C)c1

photoluminescence quantum yield (in C1CCCCC1): 0.008
photoluminescence quantum yield (in CO): 0.004
Compound: Cc1ccc(/C=C(\c2ccccc2)c2nc3ccccc3o2)cc1

photoluminescence quantum yield (in CC#N): 0.42
photoluminescence quantum yield (in CCCCCC): 0.25
photoluminescence quantum yield (in CO): 0.12
photoluminescence quantum yield (in CS(C)=O): 0.19
photoluminescence quantum yield (in ClC(Cl)Cl): 0.36
Compound: CCC1=C(C)C2=Cc3ccccc3B(O)N2C1=O

photoluminescence quantum yield (in C1CCCCC1): 0.02
photoluminescence quantum yield (in C1COCCO1): 0.031
photoluminescence quantum yield (in CC#N): 0.025
photoluminescence quantum yield (in CN(C)C=O): 0.064
photoluminescence quantum yield (in CO): 0.02
photoluminescence quantum yield (in O): 0.011
photoluminescence quantum yield (in OCC(O)CO): 0.632
photoluminescence quantum yield (in OCCO): 0.115
Compound: O=C1NC(=O)/C(=C\c2ccccc2O)S1

photoluminescence quantum yield (in CC1CCCCC1): 0.09
photoluminescence quantum yield (in ClC(Cl)Cl): 0.03
Compound: c1cc(N2CCCC2)ccn1

photoluminescence quantum yield (in ClC(Cl)Cl): 0
Compound: Cc1oc(C)c2c1C=C(C=O)CC(C=O)=C2

photoluminescence quantum yield (in C1COCCO1): 0.258
Compound: COC(=O)c1ccc(/C=C2\N=C(c3ccc([N+](=O)[O-])cc3)NC2=O)cc1
